Literature values as cited in patent publication US20050281896A1, “Nutritional composition for increasing creatine uptake in skeletal muscle” (priority 2004, published 2005).

Experiments:
[1] = target: angiotensin converting enzyme (ACE) (Homo sapiens, UniProt P12821)
[2] = in vivo

Chain of angiotensin converting enzyme (ACE) (P12821 30-1306, species assumed): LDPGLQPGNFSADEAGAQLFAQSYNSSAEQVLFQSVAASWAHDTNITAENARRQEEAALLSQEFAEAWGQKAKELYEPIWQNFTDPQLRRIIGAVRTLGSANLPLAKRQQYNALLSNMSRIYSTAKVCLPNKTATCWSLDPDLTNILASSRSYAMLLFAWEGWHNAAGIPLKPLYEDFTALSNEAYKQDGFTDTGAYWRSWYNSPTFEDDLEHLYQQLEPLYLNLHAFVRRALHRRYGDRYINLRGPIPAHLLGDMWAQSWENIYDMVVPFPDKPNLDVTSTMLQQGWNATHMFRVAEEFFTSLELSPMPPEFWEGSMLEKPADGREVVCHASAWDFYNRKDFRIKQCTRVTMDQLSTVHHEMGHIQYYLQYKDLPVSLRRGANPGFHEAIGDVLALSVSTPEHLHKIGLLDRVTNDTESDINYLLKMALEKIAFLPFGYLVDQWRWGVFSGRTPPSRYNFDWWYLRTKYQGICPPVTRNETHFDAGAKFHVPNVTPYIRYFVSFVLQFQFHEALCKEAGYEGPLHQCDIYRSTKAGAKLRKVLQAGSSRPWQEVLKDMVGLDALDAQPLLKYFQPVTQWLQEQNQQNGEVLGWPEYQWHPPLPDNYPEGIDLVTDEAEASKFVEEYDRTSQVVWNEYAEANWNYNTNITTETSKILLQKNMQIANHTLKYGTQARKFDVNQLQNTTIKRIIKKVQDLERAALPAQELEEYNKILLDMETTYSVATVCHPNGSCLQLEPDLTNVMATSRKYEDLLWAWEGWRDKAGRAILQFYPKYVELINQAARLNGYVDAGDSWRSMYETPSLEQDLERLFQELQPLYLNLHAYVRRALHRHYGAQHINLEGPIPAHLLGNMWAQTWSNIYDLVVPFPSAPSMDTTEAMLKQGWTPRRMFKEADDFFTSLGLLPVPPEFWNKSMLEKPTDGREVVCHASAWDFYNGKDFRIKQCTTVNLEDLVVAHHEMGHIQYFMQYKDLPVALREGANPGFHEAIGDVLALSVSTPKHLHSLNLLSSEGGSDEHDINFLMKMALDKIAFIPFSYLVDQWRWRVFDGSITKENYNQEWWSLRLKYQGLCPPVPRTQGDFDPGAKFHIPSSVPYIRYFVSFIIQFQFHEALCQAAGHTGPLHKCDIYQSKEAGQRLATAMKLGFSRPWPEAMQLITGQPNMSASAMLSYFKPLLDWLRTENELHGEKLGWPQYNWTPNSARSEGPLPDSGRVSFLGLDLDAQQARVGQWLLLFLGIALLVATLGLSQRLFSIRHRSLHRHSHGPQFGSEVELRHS

SMILES: O=C(O)CCCC[C@@H]1CCSS1 (stereo in doubt) [alpha lipoic acid, 1,2-dithiolane-3-pentanoic acid]
- increase of the metabolic clearance rate of glucose (diabetics): 50%
- body's utilization of blood sugar (type II diabetics): significantly increase

SMILES: O=C(/C=C/c1ccc(O)c(O)c1)c1ccc(O)cc1O [butein, 3,4,2′,4′-tetrahydroxychalcone]
- effect on angiotensin converting enzyme (ACE) [1]: inhibition
- effect on blood pressure [2]: hypotensive effects
